Where two headings read alike, the source gives them in different places.
Key:
Erysiphe polygoni = assay: Infection by bean powdery mildew; assay type: in vivo
Erysiphe graminis = assay: Wheat powdery mildew infection, colonies per plant; details: concentrations up to 5 mM
Method: With wheat powdery mildew (E. graminis) 10-day-old seedlings were sprayed with solutions of DFMA or DFMO from 0.01 to 5.0 mM before and after inoculation of the plants with conidia. Inoculation occurred naturally in the greenhouse by distributing infected plants among the experimental plants for 24 hours. Infection was evaluated 10 days after inoculation by counting mildew colonies.

Verticillium dahliae [1] = assay: Radial mycelial growth of Verticillium dahliae in vitro; assay type: cell-based; details: Verticillium dahliae, read-out: inhibition of radial growth relative to that observed with DFMO
Uromyces phaseoli = assay: Bean rust lesions on unifoliolate leaves of Pinto bean sprayed before or after inoculation; assay type: in vivo
Puccinia sorghi = assay: Infection by corn rust; assay type: in vivo
PA titers of bean leaves = assay: Polyamine titers in leaves of sprayed bean plants; assay type: in vivo, Phaseolus vulgaris; details: sprays 0.01, 0.1 and 1.0 mM; 1, 3 and 8 days later
Method: PA analysis was performed on leaf samples collected from inhibitor-sprayed bean plants. Leaf samples were ground in prechilled mortars with 10% (w/v) HClO4 at a ratio of 200 mg fresh weight leaf per ml HClO4. Homogenates were centrifuged at 26,00 g for 20 minutes at 4° C. The clear supernatant fractions were used for dansylation according to a procedure previously described. Briefly, 0.4 ml of freshly prepared dansyl (Diaminonaphthylsulfonyl)-C1 (Sigma), 5 mg/ml in acetone, and 0.2 ml of saturated Na2 CO3 were added to 0.2 ml of the supernatant fraction. The dansylated PA were extracted with 0.25 ml benzene and the clear benzene layer was used for PA determinations by TLC on LK6D high resolution silica gel plates (Whatman). After development in chloroform:triethylamine (25:2 v/v) for about 1 hour and location by fluorescence under a UV lamp, the dansylpolyamine bands were scraped off, eluted in 4 ml of ethyl acetate and quantified with an Aminco-Bowman fluorimeter.
The effect of DFMO and DFMA sprays (0.01, 0.1, and 1.0 mM) on PA titers was also examined. Unifoliolate leaves were sprayed in the usual way and examined 1 and 3 days later, while the first trifolioloate leaves, unexpanded ata the time of spray and themselves unsprayed, were examined 8 days later.

[2] = tested on: Colletotrichum lagenarium; assay: Infection of National Pickling cucumber plants by cucumber anthracnose
bean rust uredospores = assay: Germination and differentiation of bean rust uredospores in agar; assay type: cell-based, Uromyces phaseoli; details: for inhibition at 100 µM / inhibition at 500 µM / inhibition at 1000 µM / inhibition at 5000 µM: Uromyces phaseoli
Verticillium dahliae [3] = assay: Verticillium wilt symptoms in Bonny Best tomato after foliar spray; assay type: in vivo; details: concentrations up to 10 mM
[4] = tested on: bean plants (Phaseolus vulgaris cv Pinto); assay: Effect of sprays on growth and appearance of bean plants; assay type: in vivo; details: sprays 0.01, 0.1 and 1.0 mM
Method: Unifoliolate leaves of 10-day-old bean seedlings were sprayed (400 ul per leaf) with DFMO or alpha-difluoromethylarginine (DFMA) at concentrations of 0.01-5 mM, before or after inoculation with uredospores of the bean rust, Uromyces phaseoli, Race 0. The inhibitor solutions were prepared in 0.01% Tween 20, with the pH adjusted to 7.0. Control plants without inhibitor were sprayed similarly and were allowed to dry before inoculation with the pathogen. After inoculation with rust uredospores (25 mg/100 ml of 0.01% Tween 20) all plants were placed in dew chambers (100% relative humidity) for 16 hours at 19° C. in total darkness. After exposures to inhibitors and uredospores, all plants were returned to the greenhouse and arranged randomly. Disease severity was evaluated 7 days after inoculation by counting foliar lesions. In control plants and those treated with low concentrations of DFMO, uredospores were collected randomly from each treatment to determine percent germination and pathogenicity. For determination of germination, spores were dusted onto Petri plates containing 10 mM 2-(N-morpholino)ethanesulfonic acid (Mes) at pH 7.0, 3 mM CaCl2, 2 mM MgSO4, and 1% purified agar, and incubated for 3 hr at 19° C. in the light.

[5] = tested on: Botrytis sp., B. cinerea, Rhizoctonia solani, Monilinia fructicola; details: cited from earlier work
[6] = tested on: Puccinia graminis fsp avenae; assay type: in vivo
[7] = postinoculation exposure, inhibitor 1.0 mM
[8] = postinoculation exposure, inhibitor 5.0 mM
[9] = preinoculation exposure, inhibitor 1.0 mM
[10] = preinoculation exposure, inhibitor 5.0 mM
[11] = read-out: Differentiation % Inhibiton
[12] = read-out: Germination % Inhibition

SMILES: N=C(N)NCCC[C@](N)(C(=O)O)C(F)F [DFMA, alpha-difluoromethylarginine]
- Percent control (Erysiphe polygoni; 1 mM): 7%
- Percent control (Erysiphe polygoni; 5 mM): 35%
- Percent control (Erysiphe polygoni; 10 mM): 35%
- control of wheat powdery mildew infection (Erysiphe graminis): ineffective
- inhibition at 500 µM (Verticillium dahliae [1]): ~50%
- reduction of bean rust infection (Uromyces phaseoli; even at 5.0 mM): ineffective
- germination or pathogenicity of uredospores collected from treated plants (Uromyces phaseoli; plants treated with low concentrations): no decrease in germination or pathogenicity
- Lesions per cm^2 (Uromyces phaseoli; [7]): 56 ± 3 per cm^2
- Lesions per leaf (Uromyces phaseoli; [7]): 2829 ± 242 per leaf
- Lesions per cm^2 (Uromyces phaseoli; [8]): 50 ± 2 per cm^2
- Lesions per leaf (Uromyces phaseoli; [8]): 2195 ± 169 per leaf
- Lesions per cm^2 (Uromyces phaseoli; [9]): 51 ± 4 per cm^2
- Lesions per leaf (Uromyces phaseoli; [9]): 3101 ± 217 per leaf
- Lesions per cm^2 (Uromyces phaseoli; [10]): 46 ± 4 per cm^2
- Lesions per leaf (Uromyces phaseoli; [10]): 2928 ± 317 per leaf
- Percent control (Puccinia sorghi; 0.01 mM): 13.0%
- Percent control (Puccinia sorghi; 0.025 mM): 7.2%
- Percent control (Puccinia sorghi; 0.065 mM): 0.0%
- Percent control (Puccinia sorghi; 0.10 mM): 0.0%
- Percent control (Puccinia sorghi; 0.13 mM): 9.3%
- Percent control (Puccinia sorghi; 0.16 mM): 27.1%
- Percent control (Puccinia sorghi; 0.20 mM): 14.0%
- control of corn rust (Puccinia sorghi; up to 0.20 mM): essentially ineffective
- PA levels in treated leaves (PA titers of bean leaves): no significant reductions
- Lesions per plant ([2]; 1.0 mM): 73 per plant
- Percent control ([2]; 1.0 mM): 10%
- Lesions per plant ([2]; 5.0 mM): 71 per plant
- Percent control ([2]; 5.0 mM): 12%
- Lesions per plant ([2]; 10.0 mM): 73 per plant
- Percent control ([2]; 10.0 mM): 10%
- Differentiation % (bean rust uredospores; 0.1 mM): 46%
- Germination % (bean rust uredospores; 0.1 mM): 36%
- Differentiation % (bean rust uredospores; 0.5 mM): 30%
- Germination % (bean rust uredospores; 0.5 mM): 36%
- Differentiation % (bean rust uredospores; 1.0 mM): 23%
- Germination % (bean rust uredospores; 1.0 mM): 31%
- Differentiation % (bean rust uredospores; 5.0 mM): 18%
- Germination % (bean rust uredospores; 5.0 mM): 26%
- inhibition at 100 µM (bean rust uredospores; [11]): 22%
- inhibition at 500 µM (bean rust uredospores; [11]): 49%
- inhibition at 1000 µM (bean rust uredospores; [11]): 61%
- inhibition at 5000 µM (bean rust uredospores; [11]): 69%
- inhibition at 100 µM (bean rust uredospores; [12]): 14%
- inhibition at 500 µM (bean rust uredospores; [12]): 14%
- inhibition at 1000 µM (bean rust uredospores; [12]): 26%
- inhibition at 5000 µM (bean rust uredospores; [12]): 38%
- symptom severity and time of symptom expression (Verticillium dahliae [3]): did not alter either symptom severity nor time of symptom expression
- growth of the bean plants [4]: no effect
- mycelial growth in vitro ([5]; Botrytis sp., B. cinerea, Rhizoctonia solani, Monilinia fructicola): inhibited mycelial growth
- relative inhibition of fungal growth in vitro ([5]; Plant Cell Physiol. (1985), vol. 26, 683-692): more effective inhibitor of fungal growth than was DFMO
- Percent control ([6]; 0.01 mM): 40.4%
- Percent control ([6]; 0.025 mM): 32.6%
- Percent control ([6]; 0.065 mM): 41.9%
- Percent control ([6]; 0.10 mM): 53.1%
- Percent control ([6]; 0.13 mM): 61.5%
- Percent control ([6]; 0.16 mM): 57.0%
- Percent control ([6]; 0.20 mM): 63.8%
- Percent control ([6]; 1.00 mM): 86.0%
- effectiveness against oat stem rust compared with DFMO ([6]; in vivo): nearly as effective as DFMO

Source: patent US4818770A, “Prevention of a plant disease by specific inhibition of fungal polyamine biosynthesis” (priority 1986, dated 1989)
